Experimental data reported in patent US11033559B2, “Leukocyte infiltration promoting agent and antitumor immunostimulatory agent” (OSAKA UNIVERSITY, priority 2015, dated 2021).

Assays:
Format in all cases: in vivo
[1] = tested on: tumor blood vessels in Lewis lung cancer (LLC) tumor-bearing mice; assay: Structural changes in tumor blood vessels (anti-CD31 immunostaining) after administration of LPA or LPA derivative; conditions: 3 mg/kg intraperitoneally once daily for five days, tumors harvested at 6 days, anti-CD31 staining
Method: LPA or an LPA derivative was administered to tumor-bearing mice generated by subcutaneous inoculation of a mouse cancer cell line, and post-administration structural changes in tumor blood vessels were examined.
Lewis lung cancer cells (hereinafter called LLC cells) were used as the mouse cancer cell line. LLC cells (1×10^6 cells in 100 μL PBS per animal) were subcutaneously injected into C57BL/6 NCrSlc mice aged 8 weeks (females, SLC, Inc.).
The LPA used was 18:1 LPA (Avanti Polar Lipids, Inc.). The LPA derivative used was VPC31144S (N-{(1S)-2-hydroxy-1-[(phosphonooxy)methyl]ethyl} (9Z) octade c-9-enamide). A 10 mM LPA stock solution and a 10 mM VPC31144S stock solution were separately prepared using 50% ethanol and stored at −30° C. Before use, each of the frozen stock solutions was thawed and homogenized with an ultrasonic cleaner (SND Co., Ltd.) for 1 minute. The solution was diluted in PBS to an appropriate concentration for administration at a dose of 3 mg/kg in 100 μL PBS.
On day 9 post-inoculation, LLC-bearing mice that had developed a tumor with a volume of 60 to 80 mm^3 (volume=length×width×height×0.5) were selected and subjected to the experiment. The mice were assigned to three groups: a control group, an LPA group and a VPC31144S group. Each group consisted of three mice. […]

[2] = tested on: LLC cells; assay: Tumor growth inhibition, subcutaneous tumor formed from LLC cells; conditions: LLC-bearing mice; LPA 3 mg/kg i.p. once daily for seven days; 5-FU 100 mg/kg i.p. once weekly, 2 times
Method: LLC cells (1×10^6 cells in 100 μL PBS per animal) were subcutaneously injected into C57BL/6 NCrSlc mice aged 8 weeks (females) in the same manner as in Reference Example 1. An LPA solution for administration was prepared in the same manner as in Reference Example 1. 5-FU (Kyowa Hakko Kirin Co., Ltd.) was used as an anticancer drug. 5-FU was prepared as a solution in physiological saline (Otsuka Pharmaceutical Co., Ltd.). On day 7 post-inoculation, LLC-bearing mice that had developed a tumor with a volume of 30 to 50 mm^3 were selected and subjected to the experiment. The mice were assigned to three groups: a control group, a 5-FU group and an LPA group (n=3 per group). After grouping, LPA (3 mg/kg/100 μL), 5-FU (100 mg/kg/100 μL) or PBS (100 μL) was intraperitoneally administered to the mice. The administration of LPA or PBS was performed once daily for consecutive seven days. The administration of 5-FU was performed once weekly, 2 times in total (day 7 and day 14 post-inoculation). Tumor size was measured over time after the start of the administration. Tumor volume was calculated by the following formula: length×width×height×0.5.

[3] = tested on: tumor blood vessels in LLC tumor-bearing mice; assay: Structural changes in tumor blood vessels after administration of S1P; conditions: 0.3 mg/kg via the tail vein once daily for three days, 24 hours after final administration
Method: S1P, a lysophospholipid other than LPA, was examined for the ability to induce vascular network formation in the tumor as with LPA. LLC cells were subcutaneously inoculated into C57BL/6 […] mice aged 8 weeks (females, SLC, Inc.) in the same manner as in Reference Example 1. S1P (Avanti Polar Lipids, Inc.) was dissolved in PBS at 10 mM, and the solution was stored at -30° C. as a stock solution. Before use, the frozen stock solution was thawed and homogenized with an ultrasonic cleaner (SND Co., Ltd.) for 1 minute. The SIP solution was diluted in PBS to an appropriate concentration for administration at a dose of 0.3 mg/kg in […] PBS. LLC-bearing mice on day 9 post-inoculation (animals with a tumor volume of 60 to 80 mm^3) were subjected to the experiment. The mice were divided into two groups: a control group and an S1P group (n=3 per group). After grouping, S1P was administered via the tail vein to the mice of the S1P group at a dose of 0.3 mg/kg in 100 μL PBS once daily for consecutive three days including the day of grouping. For the control group, PBS (100 μL) was administered via the tail vein to the mice instead of S1P. At 24 hours after the final administration, the tumors were harvested from the mice, and specimens of tumor blood vessels were prepared in the same manner as in Reference Example 1. […]

CCCCCCCC/C=C\CCCCCCCC(=O)N[C@@H](CO)COP(=O)(O)O [VPC31144S, N-{(1S)-2-hydroxy-1-[(phosphonooxy)methyl]ethyl} (9Z) octade c-9-enamide]
network structure of tumor blood vessels [1]: a continuous network of blood vessels was formed

O=c1[nH]cc(F)c(=O)[nH]1 [5-FU, reference compound]
inhibition of tumor growth (tumor volume) versus control group [2]: remarkable inhibition of tumor growth

CCCCCCCCCCCCC/C=C/[C@@H](O)[C@@H](N)COP(=O)(O)O [S1P, sphingosine-1-phosphate]
vascular network formation in the tumor [3]: induced vascular network formation in the tumor
